{
  "source": "patent US5840893A",
  "about": "“Compounds for treating infectious diseases” (priority 1996, dated 1998)",
  "key": {"HIV-1ADA": {"tested_on": "HIV-1ADA", "assay": "RT activity in supernatant of HIV-1ADA-infected monocytes", "type": "cell-based, HIV-1ADA in primary human monocytes", "protocol": "The cultures were treated with none or between 10^-12 and 10^-6M Compound No. 2 and, simultaneously with the beginning of treatment, the cells were exposed to the monocyte-tropic strain HIV-1ADA about 0.01 TCID50 /cell (1 ng p24/10^6 cells) for 2 hours. Samples were withdrawn at days 3, 6, 10, 14 and 17 after infection and assayed for reverse transcription activity.\nFIGS. 2B and 2C show the effects of various concentrations of Compound No. 2 on the production of HIV-1 in monocyte cultures not supplemented with M-CSF. In these studies MOI, as determined by concentration of p24 antigen was; FIG. 2B (8 ng/10^6 cells) and FIG. 2C (0.8 ng/10^6 cells).\nPrimary human monocytes were obtained from peripheral blood by Ficoll-Hypaque centrifugation and adherence to plastic as described previously. Gartner S. P., et al., 1986, Science 233:215. Briefly, after Ficoll-Hypaque (Pharmacia) separation, PBMCs were washed 4 times with DMEM (the last wash was done at 800 rpm to remove platelets) and resuspended in monocyte culture medium [DMEM supplemented with 1 mM glutamine, 10% heat-inactivated human serum, 1% penicillin+streptomycin mixture (Sigma)] at a density of 6×10^6 cells/ml. Cells were seeded in 24-well plates (1 ml per well) and incubated for 2 h at 37° C., 5% CO2. Following incubation, cells were washed 3 times with DMEM to remove non-adherent cells and incubation was continued in monocyte culture medium supplemented with 250 U/ml human M-CSF (Sigma). Cells were allowed to mature for 7 days prior to infection with the monocyte-tropic strain, HIV-1ADA. Nuovo, G. J., et al., 1992, Diagn. Mol. Pathol. 1:98. Two hours after infection, cells were washed with medium and cultured in RPMI supplemented with 10% human serum. […]\nMacrophage-tropic strain HIV-1ADA was amplified in primary human monocytes and concentrated to produce stock with TCID50 of about 10^5 /ml. The concentration of HIV-1 was determined by immunoassay of viral p24, concentration; using a conversion factor of […].\nFor the reverse transcriptase (RT) assay, 10 μl of culture supernatant was added to 40 μl of reaction mixture (final composition was 50 mM Tris-HCl, pH 7.8; 20 mM KCl; 5 mM MgCl2; 1 mM DTT; 0.1% Triton X-100; 0.2 OD/ml polyA; 0.2 OD/ml oligo(dT)12-18; and 40 μCi/ml ^3 H-dTTP (76 Ci/mmol, DuPont) and incubated 2 hr at 37° C. 5 μl of the reaction mixture was then spotted onto the DE 81 (Whatman) paper. Paper was air dried and washed 5 times with 5% Na2 HPO4, followed by rinsing with distilled water. After air drying, paper was put on a Flexi Filter plate (Packard), covered with scintillation fluid and counted in a Top Count Microplate Counter (Packard). Results are expressed as counts per minute in 1 ml of supernatant (cpm/ml)."}, "[1]": {"tested_on": "nuclear importation of HIV-1 preintegration complexes", "assay": "Nuclear importation of HIV-1 preintegration complexes (2-LTR circle PCR) in primary human monocytes", "type": "cell-based, HIV-1ADA in primary human monocytes", "conditions": "Monocyte, 100 nM, 48 and 96 hours post infection", "description": "The effects of Compound No. 2 on the nuclear importation of HIV-1 preintegration complexes can be directly measured by detecting the presence of circularized duplex HIV-1 genomic DNA. These duplex circles can be readily detected by PCR amplification using primers which span the junction of the circularized HIV-1 genome. Bukrinsky, M. I., et al., 1992, Proc.Natl.Acad.Sci. 89:6580-84.\nBriefly, the efficiency of nuclear translocation was estimated by the ratio between the 2-LTR- and pol-specific PCR products, which reflects the portion of 2-LTR circle DNA molecules as a fraction of the entire pool of intracellular HIV-1 DNA. Viral 2-LTR circle DNA is formed exclusively within the nucleus of infected cells and thus is a convenient marker of successful nuclear translocation. […]\nTotal DNA was extracted from HIV-1-infected cells using the IsoQuick extraction kit (Microprobe Corp., Garden Grove, Calif.). DNA was then analyzed by PCR using primer pairs that amplify the following sequences: a fragment of HIV-1 (LTR/gag) that is the last one to be synthesized during reverse transcription and therefore represents the pool of full-length viral DNA molecules; a fragment of polymerase gene (pol); a 2-LTR junction region found only in HIV-1 2-LTR circle DNA molecules; or a fragment of the cellular a-tubulin gene. […]"}, "[2]": {"conditions": "Table IV; measured in a 25 gr mouse", "method": "Standard addition curves for each test compound were constructed by adding increased amounts of drug to mouse or human A^+ plasma (Long Island Blood Services; Melville, N.Y.). […] The eluted sample was reduced to dryness in a rotary evaporator and resuspended in 1.0 ml Buffer A.\nFemale ND4 Swiss Webster mice (21-24 g) were obtained from Harlan Sprague Dawley (Indianapolis, Ind.) and randomly placed in groups of five in cages with free access to food and water. […] The other CNI compounds were administered intraperitoneally or by oral gavage as a solution in water titrated with sufficient HCl to dissolve the drug. At various time points, ranging from 5 min to 4 days, a single group of animals was euthanized by carbon dioxide inhalation and bled by cardiac puncture using heparin as an anticoagulant. The blood from the five mice in the group was pooled and centrifuged at 14000×g for 10 min. The volume of plasma was measured, and equal volume of Buffer A added, and the mixture extracted and analyzed as described above, except that the dried eluates were resuspended in 200 μl Buffer A and 100 μl was injected onto the high performance liquid chromatography (HPLC) system.\nThe area under the plasma concentration-time curve (AUC) was determined, and bioavailability was measured as AUCoral /AUCi.p.. […] The volume of distribution (VD) was calculated as dose/B, and the total clearance rate (Cltot) calculated as β*VD. Cmax and tmax are the maximal plasma concentration and time of this measurement, respectively."}},
  "data": [
    {"smiles": "CC(=O)c1cc(Nc2cc(C)[n+](C)c(N)n2)cc(C(C)=O)c1.[I-]", "note": "[Compound No. 2, 2-amino-4-(3,5-diacetylphenyl)amino-1,6-dimethylpyrimidinium iodide]", "values": [
      {"measurement": "IC50", "setting": "HIV-1ADA; Homo sapiens, Monocyte, FIG. 2A, M-CSF, 1 ng p24/10^6 cells", "value": "0.1 to 1", "unit": "nM"},
      {"measurement": "IC50", "setting": "HIV-1ADA; Homo sapiens, Monocyte, FIG. 2B, without M-CSF, 8 ng p24/10^6 cells", "value": "~10", "unit": "nM"},
      {"measurement": "IC50", "setting": "HIV-1ADA; Homo sapiens, Monocyte, FIG. 2C, without M-CSF, 0.8 ng p24/10^6 cells", "value": "< 1", "unit": "nM"},
      {"measurement": "IC50", "setting": "HIV-1ADA; Human immunodeficiency virus 1, Monocyte, FIG. 2, HIV-1 replication in monocytes, estimated", "value": "0.1 to 1", "unit": "nM"},
      {"measurement": "inhibition at 0.1 µM", "setting": "[1]", "value": "> 90", "unit": "%"},
      {"measurement": "activity at 0.1 µM", "setting": "[1]; relative to drug free control, read-out: Translocation Index", "value": "< 10", "unit": "%"},
      {"measurement": "Clearance", "setting": "[2]", "value": 35.35, "unit": "mL/min"}
    ]}
  ]
}
